Measured values published in the supplement of paper PMC10307832.

Assays:
Assay in all cases: relative viability (nuclei count vs DMSO), 5 days (fraction); higher = more cells survive
201T = system: 201T
Method in brief: (§1)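 Each reported value is a median over duplicate plates. It expresses relative viability: treated-well nuclei count divided by vehicle-well nuclei count. Lung cancer cell lines in 1536-well plates were dosed by pin tool a day after seeding, alone with one drug or with a fixed anchor-drug dose plus five library-drug doses (not always all listed) in √10 steps, and nuclei were counted after 5 days.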

BEN = system: BEN
Method in brief: as §1

EMC-BAC-2 = system: EMC-BAC-2
Method in brief: as §1

HARA = system: HARA
Method in brief: as §1

HCC-44 = system: HCC-44
Method in brief: as §1

LCLC-103H = system: LCLC-103H
Method in brief: as §1

LOU-NH91 = system: LOU-NH91
Method in brief: as §1

NCI-H1395 = system: NCI-H1395
Method in brief: as §1

NCI-H1993 = system: NCI-H1993
Method in brief: as §1

NCI-H2023 = system: NCI-H2023
Method in brief: as §1

NCI-H2087 = system: NCI-H2087
Method in brief: as §1

Structure (SMILES): CCN(CC)CCCCNc1ncc2cc(-c3cc(OC)cc(OC)c3)c(NC(=O)NC(C)(C)C)nc2n1 + Cc1cc(Nc2cc(N3CCN(C)CC3)nc(Sc3ccc(NC(=O)C4CC4)cc3)n2)n[nH]1 [Tozasertib] (partner 0.1 µM)
- relative viability (201T; first compound 0.01 µM): 0.995
- relative viability (201T; first compound 0.03162 µM): 0.992
- relative viability (201T; first compound 0.1 µM): 0.979
- relative viability (201T; first compound 0.3162 µM): 1.02
- relative viability (201T; first compound 1 µM): 0.721
- relative viability (BEN; first compound 0.01 µM): 0.371
- relative viability (BEN; first compound 0.03162 µM): 0.508
- relative viability (BEN; first compound 0.1 µM): 0.515
- relative viability (BEN; first compound 0.3162 µM): 0.489
- relative viability (BEN; first compound 1 µM): 0.507
- relative viability (EMC-BAC-2; first compound 0.01 µM): 0.162
- relative viability (EMC-BAC-2; first compound 0.03162 µM): 0.292
- relative viability (EMC-BAC-2; first compound 0.1 µM): 0.277
- relative viability (EMC-BAC-2; first compound 0.3162 µM): 0.31
- relative viability (EMC-BAC-2; first compound 1 µM): 0.26
- relative viability (HARA; first compound 0.01 µM): 0.104
- relative viability (HARA; first compound 0.03162 µM): 0.122
- relative viability (HARA; first compound 0.1 µM): 0.0948
- relative viability (HARA; first compound 0.3162 µM): 0.0933
- relative viability (HARA; first compound 1 µM): 0.0989
- relative viability (HCC-44; first compound 0.01 µM): 1.1
- relative viability (HCC-44; first compound 0.03162 µM): 1.07
- relative viability (HCC-44; first compound 0.1 µM): 0.953
- relative viability (HCC-44; first compound 0.3162 µM): 0.899
- relative viability (HCC-44; first compound 1 µM): 0.85
- relative viability (LCLC-103H; first compound 0.01 µM): 0.588
- relative viability (LCLC-103H; first compound 0.03162 µM): 0.486
- relative viability (LCLC-103H; first compound 0.1 µM): 0.54
- relative viability (LCLC-103H; first compound 0.3162 µM): 0.452
- relative viability (LCLC-103H; first compound 1 µM): 0.31
- relative viability (LOU-NH91; first compound 0.01 µM): 0.613
- relative viability (LOU-NH91; first compound 0.03162 µM): 0.684
- relative viability (LOU-NH91; first compound 0.1 µM): 0.697
- relative viability (LOU-NH91; first compound 0.3162 µM): 0.677
- relative viability (LOU-NH91; first compound 1 µM): 0.574
- relative viability (NCI-H1395; first compound 0.01 µM): 0.77
- relative viability (NCI-H1395; first compound 0.03162 µM): 0.754
- relative viability (NCI-H1395; first compound 0.1 µM): 0.785
- relative viability (NCI-H1395; first compound 0.3162 µM): 0.695
- relative viability (NCI-H1395; first compound 1 µM): 0.547
- relative viability (NCI-H1993; first compound 0.01 µM): 0.621
- relative viability (NCI-H1993; first compound 0.03162 µM): 0.608
- relative viability (NCI-H1993; first compound 0.1 µM): 0.604
- relative viability (NCI-H1993; first compound 0.3162 µM): 0.64
- relative viability (NCI-H1993; first compound 1 µM): 0.566
- relative viability (NCI-H2023; first compound 0.01 µM): 0.323
- relative viability (NCI-H2023; first compound 0.03162 µM): 0.428
- relative viability (NCI-H2023; first compound 0.1 µM): 0.401
- relative viability (NCI-H2023; first compound 0.3162 µM): 0.41
- relative viability (NCI-H2023; first compound 1 µM): 0.222
- relative viability (NCI-H2087; first compound 0.01 µM): 0.243
- relative viability (NCI-H2087; first compound 0.03162 µM): 0.282
- relative viability (NCI-H2087; first compound 0.1 µM): 0.25
- relative viability (NCI-H2087; first compound 0.3162 µM): 0.236
- relative viability (NCI-H2087; first compound 1 µM): 0.251
